In article PMC9729826, “Hypoaminoacidemia underpins glucagon-mediated energy expenditure and weight loss” (Cell Reports Medicine, 2022):
Starred links: 1 amine or outer side, 2 acyl side, 3 side chain; linkers in the order of their positions; H or OH if unused. Non-standard residues stand in square brackets, D forms with d. Residues, ends and D or L forms follow the SMILES beside them. Groups on a side chain read outwards from the residue. *: point of attachment. C18 diacid = O=C(O)CCCCCCCCCCCCCCCCC(=O)*; γGlu = O=C(O)[C@H](CCC(=O)[*:2])N[*:1]; Aib = CC(C)(N)C(=O)O

Tests used:
[1] = test system: diet-induced obese (DIO) C57BL/6 mice; assay: Chronic low-dose (7.5 nmol/kg) G108 study in DIO mice on SP or HP diet; type: in vivo, mouse; conditions: 7.5 nmol/kg s.c. daily
Source text: Lean 10-week-old C57BL/6 mice (N = 27) were provided ad libitum a 60 kcal% high fat diet (diet D12492, Table S2) for 12 weeks prior to the start of the study. The cohort of mice were individually housed and divided into three treatment groups, based on treatment and diet allocation: Vehicle/High fat, Standard protein diet (SP) (N = 9), 7.5 nmol/kg G108/SP diet (N = 9) and 7.5 nmol/kg G108/High fat, High protein diet (HP) (N = 9). The high fat, standard protein diet (SP diet) (D08091803) and high fat, high protein diet (HP diet) (D08091801) are detailed in Table S2. All mice had ad libitum access to water and their allocated diets. Mice were subcutaneously administered with their respective treatments at 9 am each day for 27 days. Food intake, water intake and body weight were measured using the same weighing scale each morning prior to vehicle or G108 administration. EchoMRI was carried out at baseline, day 14 and day 25. Tail venesection was carried out on day 13 of the study immediately pre-treatment. 40–50 μL of blood was collected and immediately transferred on ice, centrifuged at 2800 × g for 10 min prior to analysis for total and individual plasma amino acids. A glucose tolerance test was carried out on day 15 of the study following a 5 h fast as described below. Forelimb grip strength testing was performed at baseline and day 25 of the study. After 20 days, all groups were placed into metabolic cages, single housed for 72 h, as described below. After 72 h, all groups were removed from the metabolic cages and returned to their home cages. Following a 4 h fast on day 27 all mice were culled, with the following tissues dissected and snap frozen in liquid nitrogen prior to storage at −80°C: gastrocnemius, quadriceps, brown adipose tissue (BAT) and liver. Terminal blood was also collected and transferred on ice immediately for centrifugation as previously described and storage at −80°C.
Food intake was measured daily using a dedicated weighing scale and topped up accordingly. Body weight was recorded at 9 am daily or every 48 h using the same weighing scale. Body composition was measured using an EchoMRI analyser at various timepoints during chronic studies. Body composition measurements were taken on the same time of day to reduce intra-animal variability. Animals were placed in a transparent cylindrical Perspex tube and both ends secured with Perspex clips. The tubes containing the animal was then carefully placed into the MRI machine (EchoMRI −100H analyser, EchoMRI). Each scan lasted approximately 90 s where lean mass and fat mass were recorded in grams. Following the scan, the mice were removed from the Perspex tube and returned to their respective cages.
For glucose tolerance tests, following a 5 h fast and administration of peptide or vehicle treatment, mice were administered with glucose by intraperitoneal injection at a dose of 2 g/kg body weight. Tail vein blood samples were taken at baseline, 20, 40, 60 and 90 min and glucose measured (mmol/L) using a handheld GlucoRx monitor (GlucoRx, UK).
To measure energy expenditure, DIO mice were placed into a Comprehensive Laboratory Animal Monitoring System (CLAMS, Columbus instruments, Columbus, US). Measurement of oxygen consumption and carbon dioxide production was taken at 20 min intervals. Food intake was also measured electronically without the need to remove food. Each cohort of mice were placed into the CLAMS system with daily weighing of body weight prior to administration of the allocated treatment at 9 am. Following administration of treatment, mice were placed back into the metabolic cages with ad libitum access to their allocated diet. For studies with the low amino acid (LAA) diet in metabolic cages, animals were not removed from the metabolic cages until the end of the experiment and had ad libitum access to either standard protein or low amino acid diets. Feed efficiency was calculated as mg body weight change per kJ consumed. […]

C57BL/6 mice = assay: Single-dose G108 EE and plasma amino acid study in metabolic cages; type: in vivo, mouse; conditions: for plasma total amino acids after a single injection / energy expenditure after a single injection: mice on SP diet
Method: Lean 10-week-old C57BL/6 mice (N = 20) were provided ad libitum a 60 kcal% high fat diet (diet D12492, Table S2) for 10 days. They were then switched to either a standard protein high fat diet (D08091803) or a high protein high fat diet (D08091801) (N = 10/group) for 1 week prior to commencing the study. All mice were then placed into metabolic cages, individually housed, and allowed to acclimatise for 24 h. On day 2, baseline metabolic readings were obtained prior to single dose administration of 7.5 nmol/kg G108 on day 3 at 9 am. Metabolic readings were subsequently obtained over the following 48 h prior to single dose administration of 20 nmol/kg G108 on day 5. On day 8, all mice were removed from the metabolic cages and returned to their home cages. A parallel study was then carried out whereby venous blood samples were collected at baseline and daily following single dosing with either 7.5 nmol/kg or 20 nmol/kg G018. Blood samples were transferred on ice immediately for centrifugation as previously described. Samples were stored at −80°C prior to measurement of plasma total amino acids.
To measure energy expenditure, DIO mice were placed into a Comprehensive Laboratory Animal Monitoring System (CLAMS, Columbus instruments, Columbus, US). Measurement of oxygen consumption and carbon dioxide production was taken at 20 min intervals. Food intake was also measured electronically without the need to remove food. Each cohort of mice were placed into the CLAMS system with daily weighing of body weight prior to administration of the allocated treatment at 9 am. Following administration of treatment, mice were placed back into the metabolic cages with ad libitum access to their allocated diet. For studies with the low amino acid (LAA) diet in metabolic cages, animals were not removed from the metabolic cages until the end of the experiment and had ad libitum access to either standard protein or low amino acid diets. Feed efficiency was calculated as mg body weight change per kJ consumed.
Plasma total amino acids were measured using fluorometric-based ELISA kits as described (MAK002, Sigma-Aldrich, Ab65347, Abcam). Plasma FGF21 was measured using a fluorescent based ELISA kit (ab229382, Abcam). Plasma triglyceride, cholesterol and leptin were measured using ELISA kits (ab65336, ab65390, ab199082, Abcam). Individual amino acids were measured using Gas Chromatography/Mass Spectrometry (WellChild laboratory, Evelina Children’s Hospital, St Thomas’s Hospital, London).

Q: How did the food intake ([1]; 27 days) turn out when `CC[C@H](C)[C@H](NC(=O)[C@H](Cc1ccccc1)NC(=O)[C@H](CCC(=O)O)NC(=O)[C@H](CCC(N)=O)NC(=O)[C@H](C)NC(=O)[C@H](CCCNC(=N)N)NC(=O)[C@H](CCCCN)NC(=O)[C@H](C)NC(=O)[C@H](CC(=O)O)NC(=O)[C@H](CC(C)C)NC(=O)[C@H](Cc1ccc(O)cc1)NC(=O)[C@H](CCCNC(=N)N)NC(=O)[C@H](CO)NC(=O)[C@H](Cc1ccc(O)cc1)NC(=O)[C@H](CC(=O)O)NC(=O)[C@H](CO)NC(=O)[C@@H](NC(=O)[C@H](Cc1ccccc1)NC(=O)[C@@H](NC(=O)CNC(=O)[C@H](Cc1c[nH]cn1)NC(=O)C(C)(C)NC(=O)[C@@H](N)Cc1c[nH]cn1)[C@@H](C)O)[C@@H](C)O)C(=O)N[C@@H](CCC(=O)O)C(=O)N[C@@H](Cc1c[nH]c2ccccc12)C(=O)N[C@@H](CC(C)C)C(=O)N[C@@H](CC(C)C)C(=O)N[C@@H](CCC(N)=O)C(=O)N[C@@H](CO)C(=O)N[C@@H](Cc1c[nH]cn1)C(=O)N[C@@H](Cc1c[nH]cn1)C(=O)N[C@@H](CCC(N)=O)C(=O)N[C@@H](Cc1c[nH]cn1)C(=O)N[C@@H](Cc1c[nH]cn1)C(=O)N1CCC[C@H]1C(=O)N[C@@H](CO)C(=O)N1CCC[C@H]1C(=O)N1CCC[C@H]1C(=O)N1CCC[C@H]1C(=O)N[C@@H](CCCCNC(=O)[C@H](CC(N)=O)NC(=O)CC[C@H](NC(=O)CCCCCCCCCCCCCCCCC(=O)O)C(=O)O)C(N)=O` [Peptide G108] (H-H[Aib]HGTFTSDYSRYLDAKRAQEFIEWLLQSHHQHHPSPPPK([Asn-γGlu-C18 diacid])-NH2; N-terminus and C-terminus assumed) was run?
A: did not affect food intake

Q: What about the “body weight on high protein (HP) diet” value ([1]; 27 days, HP diet (40 kcal% protein) versus SP diet, n = 9/group) of the same compound?
A: sufficient to prevent chronic G108-mediated weight loss

Q: What about the “lean mass and grip strength on HP diet” value ([1]; HP diet, less pronounced over the course of the study) of the same compound?
A: blunted the reduction in lean mass and grip strength

Q: What about the “energy expenditure (EE) in metabolic cages” value ([1]; after 20 days, CLAMS, SP and HP diets, n = 7-8/group) of the same compound?
A: increased EE on a standard protein (SP), but not HP, diet

Q: And the “individual plasma amino acids” value ([1]; day 13, SP diet, GC/MS, n = 5/group)?
A: reduced the plasma abundance of most amino acids

Q: What about the plasma total cholesterol ([1]; day 14, both SP and HP diets, n = 9/group) of the same compound?
A: improvement in plasma cholesterol

Q: What about the plasma total triglyceride ([1]; day 14, n = 9/group) of the same compound?
A: no change in plasma triglycerides

Q: And the “glucose tolerance (intraperitoneal glucose tolerance test, 2 g/kg)” value ([1]; day 15, SP and HP diets, n = 9/group)?
A: remarkably efficient at improving glucose tolerance

Q: And the “fat mass on standard protein (SP) diet” value ([1]; days 14 and 25, SP diet, prevented by HP diet)?
A: marked reduction in fat mass

Q: What about the “induction of hepatic amino acid catabolic pathways on HP diet” value ([1]; liver qPCR, n = 5-6/group) of the same compound?
A: not prevented by the HP diet

Q: What about the “hepatic lipid content (oil red O staining)” value ([1]; terminal (day 27), both SP and HP diets) of the same compound?
A: highly effective at clearing liver fat

Q: What about the “plasma total amino acids after a single injection” value (C57BL/6 mice; single 7.5 nmol/kg dose, n = 10/group) of the same compound?
A: transient reduction in plasma amino acids

Q: What about the “energy expenditure after a single injection” value (C57BL/6 mice; single 7.5 nmol/kg dose, up to 48 h, n = 10/group) of the same compound?
A: trend toward increased EE

Q: What about the “plasma total amino acids after a single injection” value (C57BL/6 mice; single 20 nmol/kg dose, n = 9-10/group) of the same compound?
A: sustained reduction in plasma amino acids

Q: And the “energy expenditure after a single injection” value (C57BL/6 mice; single 20 nmol/kg dose, up to 72 h, n = 9-10/group)?
A: significantly increased EE response

Q: And the “hypoaminoacidemia and EE in mice fed the HP diet” value (C57BL/6 mice; single 7.5 and 20 nmol/kg doses, HP diet)?
A: protected against G108-stimulated hypoaminoacidemia and EE at both doses
